Two molecules from patent US8552017B2, “2-amino-3-sulphonyl-tetrahydro-pyrazolo[1,5-A]pyrido-pyrimidine antagonists of serotonin 5-HT6 receptors, methods for the production and use thereof” (priority 2008, dated 2013) can be followed below.

Test [1] concerns the target T1, 5-HT6 receptor (Homo sapiens (Human), UniProt P50406). Nature of the test: Antagonistic activity test towards 5-HT6 receptors (serotonin-induced intracellular cAMP, LANCE cAMP kit, HEK 293 cells). The note with it: read-out: IC50 in the setting of functional assay. The test is classed as cell-based. The protocol: Antagonistic activity test of compounds of the general formulas 1 and 2 towards 5-HT6 receptors. Compounds of general formulas 1 and 2 were tested for their ability to prevent 5-HT6 receptors activation by serotonin. HEK 293 cells (kidney cells of human's embryo) with artificially expressed 5-HT6 receptor, activation of which by serotonin leads to increasing the concentration of intracellular cAMP were used. Intracellular cAMP content was determined using reagent kit LANCE cAMP (PerkinElmer) according to the method described by the manufacturer of the kit [http://las.perkinelmer.com/content/Manuals]. Effectiveness of compounds was estimated by their ability to reduce the content of intracellular cAMP induced by serotonin.

The target of test [2] is T1, 5-HT6 receptor. Nature of the test: Competitive radioligand binding ([3H] Lysergic acid diethylamide) to serotonin 5-HT6 receptors, HeLa cell membranes. The protocol:
Screening of the disclosed compounds for their potential ability to interact with serotonin 5-HT6 receptors was carried out by the method of radioligand binding. For this purpose membrane species were prepared from HeLa cells expressing recombinant human 5-HT6 receptors, by means of cells homogenization in glass homogenizer with subsequent separation of plasmatic membranes from cell nucli, mitochondria's and cell wreckages by differential centrifugation. Determination of tested compounds binding to 5-HT6 receptors was carried out according to the method described in [Monsma F J Jr, Shen Y, Ward R P, Hamblin M W and Sibley D R, Cloning and expression of a novel serotonin receptor with high affinity for tricyclic psychotropic drugs. Mol Pharmacol. 43:320-327, 1993]. […] Methiothepin was used as a positive control. Binding of the tested compounds with the receptor was determined by their ability to displace the radioligand and was expressed in percent of displacement. The percent of displacement was calculated according to the following equation:
[formula] wherein: TA—was overall radioactivity in the presence of radioligand only, CA—was radioactivity in the presence of radioligand and tested compound and NA—was radioactivity in the presence of radioligand and Serotonin (5 μM).

Counter-ions that a name gives are not always drawn.

T1 sequence (P50406 whole entry): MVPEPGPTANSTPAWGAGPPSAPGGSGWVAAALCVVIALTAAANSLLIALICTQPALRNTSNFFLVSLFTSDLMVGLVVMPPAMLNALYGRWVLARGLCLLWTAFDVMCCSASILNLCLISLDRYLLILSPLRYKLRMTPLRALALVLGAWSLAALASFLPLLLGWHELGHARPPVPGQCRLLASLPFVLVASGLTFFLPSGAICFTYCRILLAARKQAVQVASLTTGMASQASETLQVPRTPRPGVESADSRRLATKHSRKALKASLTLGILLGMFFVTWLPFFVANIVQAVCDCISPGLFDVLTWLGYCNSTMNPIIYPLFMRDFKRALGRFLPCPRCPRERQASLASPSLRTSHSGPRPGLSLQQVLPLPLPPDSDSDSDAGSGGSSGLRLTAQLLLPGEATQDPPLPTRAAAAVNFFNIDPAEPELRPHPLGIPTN

In the case of `CNc1nn2c3c(cnc2c1S(=O)(=O)c1ccccc1)CN(C)CC3` [1.1(3), 2-methylamino-7-methyl-3-phenylsulfonyl-6,7,8,9-tetrahydropyrazolo[1,5-a]pyrido[4,3-e]pyrimidine], the IC50 – broadly, the concentration at which inhibition is half-maximal – on 5-HT6 receptor [1] was 29.7 nM.

Molecule `CNc1nn2c3c(c(C)nc2c1S(=O)(=O)c1ccccc1)CN(C)CC3` [1.1(4)•HCl] registered an IC50 on 5-HT6 receptor [2] (1.5 nM [3H] Lysergic acid diethylamide) of 1.48 nM. In addition, the Ki (as a rule, a dissociation constant, usually derived from enzyme kinetics or from competition with a known ligand) at 5-HT6 receptor [2] (Ki=IC50/(1+[L]/KD)) came to 0.685 nM.
